# Read-outs that look alike come from different tables or passages of the source.
# Key:
# [1] = tested on: Staphylococcus aureus U.C. 6685; assay: Antibacterial activity in vivo, experimentally infected mouse; conditions: sc, dosed subcutaneously, infected experimentally with Staphylococcus aureus U.C. 6685, read-out: CD50 (the source's name)
# [2] = tested on: Serratia marcescens; assay: MIC, standard microplate agar assay, PYG agar pH 6 (aerobic bacteria); assay type: cell-based; conditions: for MIC: Serratia marcescens, UC6888, 24 h, pH 6, Serratia marcescens UC 6888, pH 6, read-out: MINIMAL INHIBITORY CONCENTRATION
# Experimental: (§1) The antibacterial assay is a standard microplate agar assay using PYG agar, pH 6. PYG agar consists of the following ingredients:
# (§2) The MIC is determined by standard methods. The inocula are overnight cultures of the test organisms, diluted so that the final population contains approximately 10^5 cells/ml. The agar plates are incubated at 28°C to 37°C for 24 hrs. The lowest antibiotic concentration which allows no growth=MIC or minimum inhibitory concentration.
# as §2, with “growth-HIC” for “growth=MIC”
# [3] = tested on: Pseudomonas aeruginosa; assay: as above; assay type: cell-based; conditions: read-out: MINIMAL INHIBITORY CONCENTRATION
# Experimental: as §1, §2
# as §2, with “growth-HIC” for “growth=MIC”
# [4] = tested on: Staphylococcus aureus; assay: as above; assay type: cell-based; conditions: read-out: MINIMAL INHIBITORY CONCENTRATION
# Experimental: as §1, §2
# as §2, with “growth-HIC” for “growth=MIC”
# [5] = tested on: Citrobacter freundii; assay: as above; assay type: cell-based; conditions: UC3507, 24 h; Citrobacter freundii UC 3507, pH 6; read-out: MINIMAL INHIBITORY CONCENTRATION
# Experimental: as §1, §2
# as §2, with “growth-HIC” for “growth=MIC”
# [6] = tested on: Streptococcus faecalis; assay: as above; assay type: cell-based; conditions: Enterococcus faecalis, UC694, 24 h; Streptococcus faecalis UC 694, pH 6; read-out: MINIMAL INHIBITORY CONCENTRATION
# Experimental: as §1, §2
# as §2, with “growth-HIC” for “growth=MIC”
# [7] = tested on: Klebsiella oxytoca; assay: as above; assay type: cell-based; conditions: read-out: MINIMAL INHIBITORY CONCENTRATION
# Experimental: as §1, §2
# as §2, with “growth-HIC” for “growth=MIC”
# [8] = tested on: Klebsiella pneumoniae; assay: as above; assay type: cell-based; conditions: UC58, 24 h; Klebsiella pneumoniae UC 58, pH 6; read-out: MINIMAL INHIBITORY CONCENTRATION
# Experimental: as §1, §2
# as §2, with “growth-HIC” for “growth=MIC”
# [9] = tested on: Escherichia coli; assay: as above; assay type: cell-based; conditions: read-out: MINIMAL INHIBITORY CONCENTRATION
# Experimental: as §1, §2
# as §2, with “growth-HIC” for “growth=MIC”
# [10] = tested on: Proteus vulgaris; assay: as above; assay type: cell-based; conditions: UC30264, 24 h; Proteus vulgaris UC 30264, pH 6; read-out: MINIMAL INHIBITORY CONCENTRATION
# Experimental: as §1, §2
# as §2, with “growth-HIC” for “growth=MIC”
# [11] = tested on: Enterobacter cloacae; assay: as above; assay type: cell-based; conditions: read-out: MINIMAL INHIBITORY CONCENTRATION
# Experimental: as §1, §2
# as §2, with “growth-HIC” for “growth=MIC”
# [12] = Solubility (characterization); assay type: physicochemical; conditions: solvents as named in the value
# [13] = UC6432, 24 h, Pseudomonas aeruginosa UC 6432, pH 6
# [14] = UC9191, 24 h, Pseudomonas aeruginosa UC 9191, pH 6
# [15] = UC3665, 24 h, Staphylococcus aureus UC 3665, pH 6
# [16] = UC6675, 24 h, Staphylococcus aureus UC 6675, pH 6
# [17] = UC6685, 24 h, Staphylococcus aureus UC 6685, pH 6
# [18] = UC9383, 24 h, Klebsiella oxytoca UC 9383, pH 6
# [19] = UC9384, 24 h, Klebsiella oxytoca UC 9384, pH 6
# [20] = UC311, 24 h, Escherichia coli UC 311, pH 6
# [21] = UC9379, 24 h, Escherichia coli UC 9379, pH 6
# [22] = UC9380, 24 h, Escherichia coli UC 9380, pH 6
# [23] = UC9381, 24 h, Enterobacter cloacae UC 9381, pH 6
# [24] = UC9382, 24 h, Enterobacter cloacae UC 9382, pH 6
SMILES,ED50 [1],"MINIMAL INHIBITORY CONCENTRATION ([2]; Serratia marcescens UC 6888, pH 6)",MIC [2],"MIC [3, 13]","MIC [3, 14]","MIC [4, 15]","MIC [4, 16]","MIC [4, 17]",MIC [5],MIC [6],"MIC [7, 18]","MIC [7, 19]",MIC [8],"MIC [9, 20]","MIC [9, 21]","MIC [9, 22]",MIC [10],"MIC [11, 23]","MIC [11, 24]",Solubility [12]
CCC(C)C(=O)OC(C)C1(O)C(C)OC(OC2C(O)C(C3(O)CC(=O)C(O)=C(C(N)=O)C3=O)OC(COC(C)=O)C2OC(=O)C(NC(=S)SCCO)C(C)SC[C@H](NC(C)=O)C(=O)O)CC1OC (stereo partly drawn) [R2=CH2CHCOOH | NHCOCH3 R3=CH2CH2OH],8 mg/kg,–,–,–,–,–,–,–,–,–,–,–,–,–,–,–,–,–,–,–
CC=C(N=C=S)C(=O)OC1C(COC(C)=O)OC(C2(O)CC(=O)C(O)=C(C(N)=O)C2=O)C(O)C1OC1CC(OC)C(O)(C(C)OC(=O)C(C)CC)C(C)O1 (stereo not drawn) [Paulomycin A],–,64 µg/mL,> 64 µg/mL,> 64 µg/mL,> 64 µg/mL,0.12 µg/mL,0.12 µg/mL,0.12 µg/mL,> 64 µg/mL,0.25 µg/mL,> 64 µg/mL,> 64 µg/mL,> 64 µg/mL,> 64 µg/mL,> 64 µg/mL,> 64 µg/mL,16 µg/mL,> 64 µg/mL,> 64 µg/mL,–
CC=C(N=C=S)C(=O)OC1C(COC(C)=O)OC(C2(O)CC(=O)C(O)=C(C(N)=O)C2=O)C(O)C1OC1CC(OC)C(O)(C(C)=O)C(C)O1 (stereo not drawn) [Paulomycin E],–,–,> 64 µg/mL,> 64 µg/mL,> 64 µg/mL,1 µg/mL,1 µg/mL,1 µg/mL,> 64 µg/mL,1 µg/mL,> 64 µg/mL,> 64 µg/mL,> 64 µg/mL,> 64 µg/mL,> 64 µg/mL,> 64 µg/mL,> 64 µg/mL,> 64 µg/mL,> 64 µg/mL,"Soluble in lower alcohols, ketones, ethyl acetate, chloroform, methylene chloride; less soluble in ether; insoluble in saturated hdyrocarbon solvents"
CC=C(N=C=S)C(=O)OC1C(COC(C)=O)OC(C2(O)CC(=O)C(O)=C(C(N)=O)C2=O)C(O)C1OC1CC(OC)C(O)(C(C)OC(=O)CC(C)C)C(C)O1 (stereo not drawn) [Paulomycin A2],–,–,> 64 µg/mL,> 64 µg/mL,> 64 µg/mL,0.12 µg/mL,0.12 µg/mL,0.12 µg/mL,> 64 µg/mL,0.25 µg/mL,> 64 µg/mL,> 64 µg/mL,> 64 µg/mL,> 64 µg/mL,> 64 µg/mL,> 64 µg/mL,32 µg/mL,> 64 µg/mL,> 64 µg/mL,"Soluble in lower alcohols, ketones, ethyl acetate, chloroform, methylene chloride; less soluble in ether; insoluble in saturated hdyrocarbon solvents"
CCC(C)C(=O)OC(C)C1(O)C(C)OC(OC2C(O)C(C3(O)CC(=O)C(O)=C(C(N)=O)C3=O)OC(COC(C)=O)C2OC(=O)C(NC(=S)SC[C@H](NC(C)=O)C(=O)O)C(C)SCCO)CC1OC (stereo partly drawn) [R2=CH2CH2OH R3=CH2CHCOOH | NHCOCH3],15.3 mg/kg,–,–,–,–,–,–,–,–,–,–,–,–,–,–,–,–,–,–,–
CCC(C)C(=O)OC(C)C1(O)C(C)OC(OC2C(O)C(C3(O)CC(=O)C(O)=C(C(N)=O)C3=O)OC(COC(C)=O)C2OC(=O)C(NC(=S)SCCO)C(C)SC(CC(=O)O)C(=O)O)CC1OC (stereo not drawn) [R2=CHCOOH | CH2COOH R3=CH2CH2OH],44 mg/kg,–,–,–,–,–,–,–,–,–,–,–,–,–,–,–,–,–,–,–

# From patent publication EP0155799A2, “Paulomycin analogues and their preparation” (THE UPJOHN COMPANY, priority 1984, dated 1985)
